Laboratory results reported in US10854312B2, “Selective peptide antagonists” (BIONIZ, LLC, priority 2013, dated 2020).
Entries after “also recorded” stand apart in the source; their conditions may differ. No end group written: not given here. MAL‑PEG24 = bi-functional PEG24 molecule (Mal-PEG24)

Key:
Format in all cases: cell-based
IL-6 = test: T1165 cell proliferation assay, IL-6; conditions: IL-6 0.1 ng/ml, BNZ132-PEG-130 0.1-10 μM, 24 hours, WST-1
Method: CTLL2 cells are cultured in the presence of 5 u/ml and 10 u/ml of IL-2 (FIG. 10A) and 2.5 ng/ml and 5 ng/ml of IL-15 (FIG. 10B) in the presence of increasing concentration of BNZ132-PEG-130. T1165 cells are cultured with 0.1 ng/ml of IL-6 (FIG. 10C) and increasing concentration of BNZ132-PEG-130. […] BNZ132-1 was conjugated to BNZ130 via a PEG24 linker. The name of the bi-antagonist peptide is BNZ132-PEG-130. FIG. 10A and FIG. 10B show the results of BNZ132-PEG-130 in IL-2 (FIG. 10A) and IL-15 (FIG. 10B) CTLL2 proliferation assay. Cells were washed and incubated with IL-2 (5 and 10 units/ml), IL-15 (2.5 and 5 ng/ml) in the presence or absence of BNZ132-PEG-130 (0.1-10 μM). Cells were then pulsed with the WST-1 reagent to measure the proliferative response for the next 6 hr (OD450). […] Cells are washed and incubated with IL-6 (0.1 ng/ml) in the presence or absence of BNZ132-PEG-130 (0.1-10 μM) for 24 hours. Cells were then pulsed with WST-1 reagent for the following 6 hr to measure OD450. The BNZ130-1 polypeptide as presented in Table 2, above, is tested for its activity in inhibiting IL-6 activity. T1165 cells that are dependent on human or mouse IL-6 for their growth in vitro are selected. The cell line is cultured in the absence of IL-6, In the presence of IL-6, in the presence of BNZ130-1, and in the presence of IL-6 and BNZ130-1.

human IL-2 = test: CTLL-2 proliferation assay (WST-1), IL-2; conditions: IL-2 5 and 10 units/ml, BNZ132-PEG-130 0.1-10 μM, WST-1
Method: (§1) FIG. 6A-FIG. 6E presents inhibitory spectrum of BNZ132-1 over γc- and non-γc-cytokines. […] Neutralizing antibodies against each cytokine (R & D systems, 5 μg ml^−1) were included as controls. After 20 h, the cells were pulsed with WST-1 (Clontech) and OD450 of each well was measured after 6 h. A 19-mer scrambled peptide was used as a negative control at 5 μM. The experiments were conducted in triplicate (applies to all experiments in FIG. 6A-FIG. 6E). The result represents one of at least three independent experiments (applies to all experiments in FIG. 6A-FIG. 6E). […] In PT-18 proliferation assay, PT-18β or PT-18h21Rα cells were withdrawn of mouse IL-3 for 12 h before the experiment. Cells were then incubated with 1 nM of mouse IL-4, mouse IL-9, or mouse IL-21 in the presence or absence of the indicated doses (μM) of BNZ132-1. Neutralizing antibodies to each cytokine (5 μg ml^−1, except for anti-mouse IL-21 polyclonal antibody which was used at 15 μg ml−1) and a scrambled control peptide (5 μM) were included as negative controls. WST-1 assay was conducted as described above. […] In PT-18 h21Rα survival assay, PT-18h21Rα cells are described in the text. […] Both parental and hIL-21Rα positive PT-18 cells were washed and incubated without IL-3 for 12 h before the assay. […] The Y-axis represents the cpm (count per minute) values measured by a β-counter. […]

human IL-15 = test: CTLL-2 proliferation assay (WST-1), IL-15; conditions: IL-15 2.5 and 5 ng/ml, BNZ132-PEG-130 0.1-10 μM, WST-1
Method: as §1

IKEFLQSFIHIVQSIINT (SEQ ID NO: 130)—MAL-PEG24—SLTHLIERSSRAVLQSLLRASRQ (SEQ ID NO: 131) (linker (positions not given here) via MAL‑PEG24; also: MAL-PEG24 linker joins the two peptides, attachment points not given here) [BNZ132-PEG-130, BNZ132-1 conjugated to BNZ130 via a PEG24 linker; dual peptide antagonist]
inhibition of IL-6-induced proliferation of T1165 cells (IL-6): inhibiting; also recorded: inhibited in a dose response manner
inhibition of IL-2-induced proliferation of CTLL2 cells (human IL-2): inhibiting; also recorded: inhibited in a dose response manner
inhibition of IL-15-induced proliferation of CTLL2 cells (human IL-15): inhibiting; also recorded: inhibited in a dose response manner
